Assay results published in article PMC6072100, “Exploring the links between peptoid antibacterial activity and toxicity” (MedChemComm, 2017).
Square brackets hold non-standard residues; d marks the D form. Peptide text beside a SMILES is read from it. Gly(N-(CH2)6NH2) = NCCCCCCNCC(=O)O; Nspe = C[C@H](NCC(=O)O)c1ccccc1; Nlys = NCCCCNCC(=O)O

Assays:
[1] = test system: HaCaT cells; experiment: Skin cell toxicity assay with HaCaT (alamarBlue); assay type: cell-based, human
In short: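 HaCaT cells seeded at 2x10^4 per well 24 hours before 1-hour exposure to a 2–100 µM triplicate dilution series in DMEM high glucose with 10% FBS at 37 °C, 5% CO2. Viability assessed with alamarBlue; ED50 defined as dose killing 50% of cells, derived from dose-response data.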

[2] = test system: HepG2 cells; experiment: Cytotoxicity assay with HepG2 (alamarBlue); assay type: cell-based, human
In short: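 HepG2 cells (2 × 10^4/well, seeded 1 day earlier) were exposed to compounds (2–100 μM dilution series, triplicate) for 1 h in reduced volume, then diluted with medium and incubated 24 h at 37 °C. Viability was read by alamarBlue after 2 h (Ex 560/Em 600 nm), and ED50 (dose killing 50% of cells) came from dose-response curves.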

[3] = human, HaCaT cells (keratinocytes), 24 h
[4] = dose that kills 50% of cells, 2–100 μM, 1 h with compound then 24 h, alamarBlue

| SMILES | ED50 HaCaT [1, 3] [µM] | ED50 HepG2 ([2]; human, HepG2 cells, 24 h) [µM] | ED50 HaCaT [1, 4] [µM] | ED50 HepG2 [2, 4] [µM] |
| --- | --- | --- | --- | --- |
| C[C@@H](c1ccccc1)N(CC(N)=O)C(=O)CN(C(=O)CN(CCCCN)C(=O)CN(C(=O)CN(C(=O)CNCCCCN)[C@@H](C)c1ccccc1)[C@@H](C)c1ccccc1)[C@@H](C)c1ccccc1 [Peptoid 15, (NLysNspeNspe)2] (H-[Nlys][Nspe][Nspe][Nlys][Nspe][Nspe]-NH2) | >100 | >100 | – | – |
| C[C@@H](c1ccccc1)N(CC(N)=O)C(=O)CN(C(=O)CN(CCCCN)C(=O)CN(C(=O)CN(C(=O)CN(CCCCN)C(=O)CN(C(=O)CN(C(=O)CNCCCCN)[C@@H](C)c1ccccc1)[C@@H](C)c1ccccc1)[C@@H](C)c1ccccc1)[C@@H](C)c1ccccc1)[C@@H](C)c1ccccc1 [Peptoid 14, (NLysNspeNspe)3] (H-[Nlys][Nspe][Nspe][Nlys][Nspe][Nspe][Nlys][Nspe][Nspe]-NH2) | – | – | >100 | >100 |
| C[C@@H](c1ccccc1)N(CC(N)=O)C(=O)CN(C(=O)CN(CCCCCCN)C(=O)CN(C(=O)CN(C(=O)CN(CCCCCCN)C(=O)CN(C(=O)CN(C(=O)CNCCCCCCN)[C@@H](C)c1ccccc1)[C@@H](C)c1ccccc1)[C@@H](C)c1ccccc1)[C@@H](C)c1ccccc1)[C@@H](C)c1ccccc1 [Peptoid 11, (NahNspeNspe)3] (H-[Gly(N-(CH2)6NH2)][Nspe][Nspe][Gly(N-(CH2)6NH2)][Nspe][Nspe][Gly(N-(CH2)6NH2)][Nspe][Nspe]-NH2) | >100 | >100 | – | – |
